Test results as given in publication PMC10386076, “Discovery of RC-752, a Novel Sigma-1 Receptor Antagonist with Antinociceptive Activity: A Promising Tool for Fighting Neuropathic Pain” (Pharmaceuticals, 2023).

Key:
S1R = molecular target: T1, S1R (Cavia porcellus, UniProt Q60492); test: S1R radioligand displacement binding assay ([3H]-(+)-pentazocine); set-up: species or system guinea pig; conditions: for Selectivity (Ki S2R/Ki S1R): ratio Ki S2R/Ki S1R
T1 construct: tissue Harlan-Winkelmann, Borchen, Germany; host or cells: guinea pig brain membrane homogenate
Protocol: (R/S)-1a–3e were first evaluated for their binding affinity toward the S1R and S2R in a radioligand displacement assay. […] Nonspecific binding was determined using non-radiolabeled (+)-pentazocine and haloperidol in excess. All the binding experiments were carried out in duplicate. […] Haloperidol was used as a control compound in both assays.
Five guinea pig brains were homogenized with the potter (500–800 rpm, 10 up and down strokes) in 6 volumes of cold 0.32 M sucrose. The suspension was centrifuged at 1200× g for 10 min at 4 °C. […] This procedure was repeated twice. The final pellet was resuspended in 56 volumes of buffer and frozen ([…]) in 1.5 mL portions containing about 1.5 mg protein/mL.
The test compound solutions were prepared by dissolving approximately 10 µmol (usually 2–4 mg) of test compound in dimethyl sulfoxide (DMSO, unless otherwise specified), so that a 10 mM stock solution was obtained. To obtain the required test solutions for the assay, the DMSO stock solution was diluted with the respective assay buffer. The filtermats were presoaked in 0.5% aqueous polyethylenamine solution for 2 h at r.t. before use. All the binding experiments were carried out in duplicate in 96-well multiplates. The concentrations given are the final concentrations in the assay. […] The receptor preparation was always added last. During the incubation, the multiplates were shaken at a speed of 500–600 rpm at the specified temperature. […] During the filtration each well was washed five times with 300 µL of water. Subsequently, the filtermats were dried at 95 °C. The solid scintillator was melted on the dried filtermats at 95 °C for 5 min. After the solidifying of the scintillator at r.t., the trapped radioactivity in the filtermats was measured with the scintillation analyzer. Each position on the filtermat corresponding to one well of the multiplate was measured for 5 min with the [^3H]-counting protocol. The overall counting efficiency was 20%. The IC50 values were calculated with GraphPad Prism 3.0 (GraphPad Software, San Diego, CA, USA) by nonlinear regression analysis. The IC50 values were subsequently transformed into Ki values using the equation of Cheng and Prusoff. All the experiments were carried out in duplicates. Compounds with high S1R affinity were tested in three independent experiments, and their Ki values are given as mean value ± SEM from the three measurements. […] (22.0 Ci/mmol; Perkin-Elmer). […] The nonspecific binding was determined with 10 µM unlabeled (+)-pentazocine.

[1] = tested on: CHME-5 (human microglial cells); test: MTS cytotoxicity assay, CHME-5; type: cell-based; conditions: for cell survival: CHME-5, 100 μM, all time points
Protocol: (§1) The early toxicity assays included in vitro cytotoxicity against two human cell lines, namely MRC-5 (human normal lung fibroblasts) and CHME-5 (human microglial cells) and an in vivo zebrafish model. The cell lines MRC-5 and CHME-5 were exposed for 24, 48, and 72 h to increasing concentrations of the tested compounds (from 0.1 to 100 µM).
(§2) A CellTiter 96® AQueous One Solution Cell Proliferation Assay (Promega, Milan, Italy) was used on cells seeded onto a 96-well plate at a density of 9 × 10^3 cells per well. The effect of the test compound was evaluated at four different concentrations (0.1, 1, 10, and 100 μM) after 24 h of continued exposure. Two independent experiments were performed for each concentration. The optical density (OD) of the treated and untreated cells was determined at a wavelength of 490 nm using a plate reader. The data were elaborated with the GraphPad Prism 5 program.

zebrafish embryos = test: In vivo toxicity in zebrafish embryos; set-up: species or system zebrafish (Danio rerio); conditions: 5 dpf; for embryo phenotype: 0.1 μM and 1 μM; for morphological score: score 5 normal to 0.5 absent; for embryo death at the highest dose: 100 μM
Protocol: The in vivo toxicity was evaluated using the predictive zebrafish animal model, which is suitable for screening drugs for potential toxicity in the nervous, cardiovascular, and digestive system. Zebrafish embryos were exposed to increasing concentrations (from 0.1 to 100 μM) of compounds (R/S)-1c and (R/S)-1d immediately after the eggs’ fertilization. The mortality rate and the kind of developmental deficiencies were evaluated at 5 days post-fertilization (dpf). […] A decrease in the embryo vitality rate and an increase in the entity of damages to the vital structures became more evident at higher concentrations (Figure 7A, Table S2). Compound (R/S)-1c induced embryo death (100% of embryos) at 10 μM, whereas (R/S)-1d caused the death of 5 embryos out of 10 at the same concentration. Moreover, among the living embryos, morphological abnormalities, mainly affecting the shape of the tail, heart, and skin pigmentation, were observed (Figure 7B–E, Table S2). […] Furthermore, the swim bladder was not well inflated, and oedema was evident.
The Tg(GFAP:GFP) zebrafish (Danio rerio) were a kind gift from the Department of Biology, University of Padova (Italy), and were maintained in a re-circulatory system at 28 °C in a light/dark cycle of 14/10 h. They were fed three times a day with dry food and Artemia. The zebrafish embryos and larvae were used for the experiments until 5 days post-fertilization (dpf); mating between 2 females and 1 male was set up the day before the test. The eggs were preserved from predation by adult fish using a plastic separator in the tanks. The eggs were collected right after spawning and used in the teratogenicity experiments. The zebrafish husbandry procedures were performed according to the Directive 2010/63/EU and in compliance with the local animal welfare regulations (authorization n. prot. 18,311/2016; released by the “Comune di Meldola”, 9 November 2016).
The toxicity evaluation was performed as previously reported. Briefly, the eggs were collected, rinsed out with embryo medium (for 1 L of distilled water: 0.1 g sodium bicarbonate, 0.1 g instant ocean, 0.19 g calcium sulphate) and put in different Petri dishes with the same medium; only the unscathed embryos were selected. Generally, 8 embryos per untreated control and treatment concentrations were cultured. The eggs were treated with an increasing concentration of (R/S)-1c and (R/S)-1d, starting from 1 h post-fertilization. They were incubated at 28 °C for about 5 days (without changing the media) in order to allow exposure to the compounds throughout all development stages. The teratogenic effects were evaluated after 5 days from treatment with morphological and viability observations. The experiment was performed in octuplicate, and the data were assessed using a sample score sheet, as reported by Brannen KC and colleagues.

[2] = tested on: MRC-5 (human normal lung fibroblasts); test: MTS cytotoxicity assay, MRC-5; type: cell-based
Protocol: as §1, §2

[3] = CHME-5, concentrations ≤10 μM, 24, 48 and 72 h
[4] = MRC-5, concentrations ≤10 μM, 24, 48 and 72 h

T1 sequence (Q60492 whole entry): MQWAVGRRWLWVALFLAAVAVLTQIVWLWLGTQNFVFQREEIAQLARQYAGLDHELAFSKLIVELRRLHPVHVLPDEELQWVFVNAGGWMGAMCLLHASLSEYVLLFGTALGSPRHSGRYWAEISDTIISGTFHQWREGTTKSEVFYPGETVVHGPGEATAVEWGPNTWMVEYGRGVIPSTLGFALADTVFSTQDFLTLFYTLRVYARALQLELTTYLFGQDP

Q: `CN(CCC(CO)c1ccc(-c2ccccc2)cc1)Cc1ccccc1` (stereo not shown) [Compound 1c, 3-([1,1’-biphenyl]-4-yl)-N-benzyl-4-hydroxy-N-methylbutanamine] was tested. Which Ki (S1R) did it give?
A: 0.95 ± 0.08 nM

Q: What about the “Selectivity (Ki S2R/Ki S1R)” value (S1R) of the same molecule?
A: 127

Q: What about the cytotoxicity ([1]; CHME-5, 100 µM, 24 h of exposure) of the same molecule?
A: evident cytotoxic effects

Q: And the cell survival [1]?
A: reduced the survival

Q: What about the cytotoxicity [1, 3] of the same molecule?
A: no cytotoxicity

Q: And the embryo phenotype (zebrafish embryos)?
A: normal and vital phenotype

Q: And the morphological score (zebrafish embryos; 0.1 μM)?
A: < 4

Q: What about the embryo death (zebrafish embryos; 10 μM) of the same molecule?
A: 100 % of embryos

Q: And the “embryo death at the highest dose” value (zebrafish embryos)?
A: death of all the zebrafish embryos

Q: And the cytotoxicity ([2]; MRC-5, 100 µM, 24 h of exposure)?
A: evident cytotoxic effects

Q: What about the cytotoxicity [2, 4] of the same molecule?
A: no cytotoxicity

Q: What does the source list for `OCC(CCN1CCCCC1)c1ccc(-c2ccccc2)cc1` (stereo not shown) [Compound 1d, 2-([1,1’-biphenyl]-4-yl)-4-(piperidin-1-yl)butan-1-ol]?
A: Selectivity (Ki S2R/Ki S1R) (S1R): 58; cytotoxicity ([1]; CHME-5, 100 µM, 24 and 48 h of exposure): no significative cytotoxicity; survival rate ([1]; CHME-5, 100 µM, 72 h): higher than 50%; cell survival [1]: reduced the survival; cytotoxicity [1, 3]: no cytotoxicity; embryo phenotype (zebrafish embryos): normal and vital phenotype; morphological score (zebrafish embryos; 0.1 μM): 5; morphological score (zebrafish embryos; 1 μM): 4; death of embryos (zebrafish embryos; 10 μM): 5 embryos out of 10; morphological score (zebrafish embryos; 10 μM): 1; embryo death at the highest dose (zebrafish embryos): death of all the zebrafish embryos; cytotoxicity ([2]; MRC-5, 100 µM, 24 and 48 h of exposure): no significative cytotoxicity; survival rate ([2]; MRC-5, 100 µM, 72 h): higher than 50%; cytotoxicity [2, 4]: no cytotoxicity
